Source: patent US7109317B1, “FK506-based regulation of biological events” (President and Fellows of Harvard College, priority 1998, dated 2006)

How the values were obtained:
calcineurin = assay: NFAT-SEAP reporter gene assay (calcineurin inhibition assay), PMA/ionomycin-stimulated; type: cell-based, human; conditions: dose-dependent suppression of PMA/ionomycin-induced activation of NFAT-SEAP reporter, transient transfection
Protocol: (§1) In particular, we transfected human TAg Jurkat T cells with a reporter construct, NFAT-SEAP, which consists of 12 copies of the NFAT response element fused upstream of the gene for secreted alkaline phosphatase (SEAP). Following transfection, the cells were exposed to phorbol myristate acetate (PMA) and ionomycin (IO), which together are able to activate NFAT-SEAP reporter activity. […] Specifically, ten million Jurkat cells per condition were transfected with 500 ng of NFAT-SEAP reporter construct by electroporation (40 ms pulse) and aliquoted at 0.3×10^6/well into a 96-well microtiter plate. […] Cells were incubated 36 hours in a tissue culture incubator, then heat-inactivated for 2 hours at 65° C. Following heating, 100 μL of cell supernatants were transferred to a replica plate containing 100 μL of assay buffer (120 μM 4-methylumbelliferyl phosphate in 2M diethanolamine bicarbonate, pH 10). Assays were incubated 8 hours before reading on a Fluoroskan plate reader.

mink lung cells = assay: Suppression of a rapamycin-dependent effect in mink lung cells; type: cell-based; conditions: unpublished observations
Excerpt: Other possibilities for the reduced activity of derivatives in this assay are 1) compound insolubility in tissue culture media, 2) inability of compound to penetrate the cell membrane, or 3) inability of compound to bind to FKBP. To rule out these other possibilities, we tested two of the derivatives for their ability to suppress a rapamycin-dependent effect in mink lung cells (Paul A Clemons and Brent Stockwell, unpublished observations).

[1] = test system: endogenous calcineurin (NFAT-SEAP reporter, human TAg Jurkat T cells); assay: NFAT-SEAP reporter assay (calcineurin inhibition assay), PMA + ionomycin stimulated human TAg Jurkat T cells; type: cell-based; conditions: for inhibition of NFAT-SEAP activity: PMA/ionomycin-induced reporter activity
Excerpt: A similar strategy can be used to identify bump-hole pairs for the CAB domain.
Each of the residues in question is part of the CAB minimal binding domain structure. […] These mutations may be inserted randomly or in a directed fashion, as described above for FKBP.
as §1

mink lung cells (FKBP) = assay: rapamycin-dependent effect in mink lung cells, suppression by FK506 derivatives; type: cell-based
Excerpt: To rule out these other possibilities, we tested two of the derivatives for their ability to suppress a rapamycin-dependent effect in mink lung cells (Paul A Clemons and Brent Stockwell, unpublished observations).

[2] = test system: fCAB, CnA (12–394) fused to CnB (3–170), human calcineurin A (SEQ ID NO: 33) and calcineurin B (SEQ ID NO: 35); assay: NFAT-SEAP reporter assay with overexpressed full length CAB (fCAB); type: cell-based; conditions: 500–5000 ng fCAB construct DNA, 500 ng NFAT-SEAP
Protocol: Primers containing restriction sites were prepared in order to amplify two different fragments of calcineurin A, corresponding the full-length CAB (fCAB) and the minimal CAB (mCAB). These PCR fragments were subcloned directionally into the polylinker to generate the following constructs: ATG-XhoI-CnA (12–394)-SalI-SpeI-TAA-EcoRI ATG-XhoI-CnA (340–394)-SalI-SpeI-TAA-EcoRI Primers containing restriction sites were prepared in order to amplify the fragment of calcineurin B corresponding to residues 3–170 of this protein. […] This fusion results in another (SalI/XhoI) fusion which cannot be cut by either enzyme. A similar strategy is possible to generate multimers of the CAB domain, greatly facilitating the production of these reagents. Since all of the restriction enzymes within the coding region are 6-base cutters, they preserve the reading frame for protein synthesis. The mature CAB should have the following amino acid sequence: NH2-Met-Leu-Glu-(CnA frag)-Val-Glu-(CnB frag)-Val-Asp-Thr-Ser-COOH • (SEQ ID NO 22) New mCAB-p65 constructs were verified by sequence analysis.
In particular, we transfected human TAg Jurkat T cells with a reporter construct, NFAT-SEAP, which consists of 12 copies of the NFAT response element fused upstream of the gene for secreted alkaline phosphatase (SEAP). […] Assays were incubated 8 hours before reading on a Fluoroskan plate reader. […]

[3] = test system: full length CABs (residues 12–394 of human calcineurin A, SEQ ID NO: 33, fused to residue 2 or residue 3 of calcineurin B, SEQ ID NO: 35) fused to VP16 or …; assay: SEAP transcription activation assay, full length CABs fused to VP16 or GAL4; type: cell-based; conditions: FK506 titration, Jurkat T-cells
Excerpt: The summary of our data in this transcription assay is as follows. The full length CABS (residues 12–394 of calcineurin A fused to residue 2 or to residue 3 of Calcinuerin B) are functional when fused to VP16 or to GAL4. They have an EC50 of ˜1 nanoMolar.

[4] = test system: 2 tandem minicabs (340–394 of CNA and 3–170 of CNB) fused to VP16, with Gal4 fused to 3 FKBPs; assay: SEAP transcription activation assay, 2 tandem minicabs fused to VP16; conditions: FK506, SEAP
Protocol: (§2) 10 million T-antigen transformed Jurkat T-cells growing in log phase at 37 degrees with 5% CO2 in RPMI medium supplemented with 10% FBS, Penicillin and Streptomycin, and Glutamate are centrifuged for 5 minutes at 1000×g. This pellet is washed with RPMI without phenol-red and re-pelleted by centrifugation at 1000×g for 5 minutes. 200 microliters of phenol-free RPMI are used to resuspend each 10 million cells. 200 microliters of these cells are then incubated for 10 minutes at room temperature with 1 microgram of the UAS-SEAP reporter, 1 microgram of the DNA binding domain containing construct, and 5 micrograms of the activation domain containing construct. Electroporation is performed at […], 129 Ohms on a BTX electroporator. The cells are allowed to recover at room temperature for another 10 minutes. They are then resuspended in 10 mLs of RPMI w/o phenol red supplemented with 10% FBS, penicillin, streptomycin, and Glutamate and returned to the 37 degree incubator with 5% CO2 for 24 hrs.
(§3) After recovery, the cells are pelleted by centrifugation at 1000×g for 5 minutes and resuspended in 5 mLs of RPMI w/o phenol red supplemented with 10% FBS, penicillin, streptomycin, and Glutamate. 100 microliters of this cell suspension is plated on a 96 well plate. […]

[5] = test system: 340miniCAB-VE constructs (CNA residues 340–394 fused to CNBMG or CNBM, VP16), with FKBP3-GE; assay: SEAP assay, 340miniCAB-VE with FKBP3-GE; type: cell-based, human
Protocol: as §2
After recovery, the cells are pelleted by centrifugation at 1000×g for 5 minutes and resuspended in 5 mLs of RPMI w/o phenol red supplemented with 10% FBS, penicillin, streptomycin, and Glutamate. 100 microliters of this cell suspension is plated on a 96 well plate. Appropriate dilutions of the dimerizer from an ethanolic solution (2 micromolar to 0.2 nanomolar) are made in the same media that the cells were resuspended in such that the concentration of ethanol is less than 1%.

[6] = test system: 350miniCABs (CNA residues 350–394 fused to CNBMG or CNBM, VP16), with FKBP3-GE; assay: SEAP assay, 350miniCAB-VE with FKBP3-GE; type: cell-based, human; conditions: FK506, with FKBP3-GE
Excerpt: Four such minimal CAB proteins were created by PCR and ligation. Two of the miniCABs contained CNA residues 340–394 fused to either CNBMG or CNBM(340miniCABs). The other two miniCABs contained CNA residues 350–394 fused to either CNBMG or CNBM(350miniCABs). Each of these miniCABs was also fused to the VP16 transactivation domain.
Consistent with the relative activity of CNBMG and CNBM, 340miniCABMG-VE was able to induce higher SEAP activity than 340miniCABM-VE.

[7] = test system: (340miniCABMG)2-VE, two 340miniCAB domains in series fused to VP16, with FKBP3-GE; assay: SEAP assay, two 340miniCAB domains in series (VE) with FKBP3-GE; type: cell-based, human; conditions: FK506, with FKBP3-GE
Protocol: as §2, §3

[8] = test system: (340miniCABMG)3-VE, three 340miniCABs in series fused to VP16, with FKBP3-GE; assay: SEAP assay, three 340miniCAB domains in series (VE) with FKBP3-GE; type: cell-based, human; conditions: FK506, with FKBP3-GE
Protocol: as §2, §3

[9] = test system: full length CABMG-GE (CNA residues 12–394 fused to CNBMG, GAL4), with FKBP3-VE; assay: SEAP assay, full length CABMG-GE with FKBP3-VE
Protocol: as §2, §3

SMILES | fold less immunosuppressive than FK506 (calcineurin) | ability to suppress the effects of rapamycin (mink lung cells) | inhibition of NFAT-SEAP activity [1] | immunosuppressive activity relative to FK506 (dose-dependent suppression of PMA/ionomycin-induced NFAT-SEAP activation) ([1]; fold less immunosuppressive than FK506, transient transfection) | suppression of rapamycin-dependent effect (mink lung cells (FKBP)) | inhibition of reporter gene activity at high level of fCAB overexpression [2] | EC50 [3] [nM] | total activation [4] [fold] | stimulation of SEAP activity ([5]; FK506-dependent, with FKBP3-GE) | EC50 ([5]; miniCABs, FK506, SEAP) [nM] | EC50 of the miniCABs compared with full length CABMG-VE ([5]; relative to full length CABMG-VE) | stimulation of SEAP activity [6] | EC50 [7] [nM] | EC50 [8] [nM] | enhancement of SEAP activity ([9]; FK506, with FKBP3-VE) [fold] | stimulation of SEAP activity in the absence of FK506 ([9]; full CAB-GE and CAB-VE, no FK506)
CO[C@H]1C[C@@H](C)C/C(C)=C/[C@@H](CC=Cc2ccccc2)C(=O)C[C@H](O)[C@@H](C)[C@@H](/C(C)=C/[C@@H]2CC[C@@H](O)[C@H](OC)C2)OC(=O)[C@@H]2CCCCN2C(=O)C(=O)[C@]2(O)O[C@H]1[C@@H](OC)C[C@H]2C [C40-phenyl-FK506] | at least 30 fold | able to suppress the effects of rapamycin | inability of C40-phenyl-FK506 to inhibit NFAT-SEAP activity | at least 30 fold | able to suppress the effects of rapamycin | – | – | – | – | – | – | – | – | – | – | –
CO[C@H]1C[C@@H](C)C/C(C)=C/[C@@H](CC=Cc2ccc(Oc3ccccc3)cc2)C(=O)C[C@H](O)[C@@H](C)[C@@H](/C(C)=C/[C@@H]2CC[C@@H](O)[C@H](OC)C2)OC(=O)[C@@H]2CCCCN2C(=O)C(=O)[C@]2(O)O[C@H]1[C@@H](OC)C[C@H]2C [C40-p-phenoxyphenyl-FK506] | – | – | – | – | able to suppress the effects of rapamycin | – | – | – | – | – | – | – | – | – | – | –
C=CC[C@@H]1/C=C(\C)C[C@H](C)C[C@H](OC)[C@H]2O[C@@](O)(C(=O)C(=O)N3CCCC[C@H]3C(=O)O[C@H](/C(C)=C/[C@@H]3CC[C@@H](O)[C@H](OC)C3)[C@H](C)[C@@H](O)CC1=O)[C@H](C)C[C@@H]2OC [FK506] | – | – | antagonizes the effect of PMA+IO in a dose-dependent manner | – | – | a high level of fCAB overexpression overcame the ability of FK506 or its derivatives to inhibit reporter gene activity | ~1 | ~20 | able to stimulate SEAP activity | ~3 | an order of magnitude greater than for full length CABMG-VE | neither of the 350miniCABs were able to stimulate SEAP activity | ~1.3 | ~1.3 | 2.0 | do not stimulate activity in the absence of FK506
